Data as given in patent US20240156083A1, “CRYOBIOPRINTING FOR TISSUE FABRICATION AND STORAGE” (THE BRIGHAM AND WOMEN'S HOSPITAL, INC., priority 2022, published 2024).

Columns and labels:
C2C12 cells [1] = test: Live/Dead viability in vertically cryobioprinted GelMA constructs; type: cell-based, mouse; settings: 7.5% GelMA
Text: The C2C12 myoblast-laden cryobioprinted samples containing DMSO and melezitose were subjected to Live/Dead assays on Days 1, 3, and 7. The 7.5% GelMA bioinks containing different concentrations (5%, 10%, and 15%) of DMSO were initially used to gain understanding on its cryoprotectant effect. The optimum concentration of DMSO was found at 10% for maximizing cell viability in the absence of the saccharide. GelMA bioinks containing different concentrations (4%, 8%, and 12%) of melezitose in the absence of DMSO were separately used for optimizing the melezitose effect. […] Therefore, the GelMA bioink combined with 8% melezitose and 10% DMSO was determined as the optimum formulation for cell-laden vertical cryobioprinting, and used in the following cellular experiments. […]
Cell viability was assessed by staining with calcein-AM at 0.5 μL mL^−1 and ethidium homodimer-1 at 2 μL mL^−1 (Thermo Fisher Scientific). Cell viability imaging was done using an inverted Eclipse-Ti fluorescence microscope (Nikon). Cell viability was quantified by counting live and dead cells using the ImageJ software (National Institutes of Health). After loading the image, we would adjust the threshold to highlight all of the cells that need to be counted, and convert the image to a binary image. The number of live cells was then determined in the image. […]

[2] = Splat ice recrystallization-inhibition assay; type: physicochemical; settings: GelMA, Tp −20° C., 30 min, increasing DMSO concentration
Experimental: To further confirm the effect of CPAs on inhibiting ice-recrystallization, a modified splat assay was employed. […] Smaller crystal size is an indication of enhanced ice recrystallization-inhibition (Tomczak MM, et al., Biochem. Biophys. Res. Commun 311, 1041-1046).
The splat cooling assay was performed following the previously developed protocols (Georgiou PG, et al., J. Am. Chem. Soc 143, 7449-7461). Briefly, 10 μL of samples with different DMSO concentrations was added between two glass coverslips. The coverslips were placed on the freezing plate (Tp=−20° C.) for 30 min. Images were then obtained using an optical microscope (Nikon) and processed by ImageJ (National Institutes of Health) to determine the ice crystal size in each group.

C2C12 cells [3] = test: Live/dead cell viability after 72 h cryopreservation in GelMA with DMSO and saccharides; type: cell-based, mouse; settings: C2C12 in 5% (w/v) GelMA; for most effective saccharide concentration for cell viability increase: 72 h cryopreservation, normalized to control with same DMSO concentration
Experimental: A series of cell viability experiments were conducted using different concentrations of DMSO and saccharides to find the optimized configuration of CPAs in GelMA. […] The cell-laden bioink was used to produce samples containing different concentrations of DMSO and saccharides at room temperature (RT). The cast samples were then directly transferred to −80° C. for 24 h, conventionally cryopreserved in liquid nitrogen for 72 h, crosslinked via UV exposure, and underwent live/dead assays. […] By using the fluorescence images, the cell viability ratios of C2C12 cells were determined. […] Cell viability of each group was normalized to the control group with the same DMSO concentration to choose the most functional saccharide and its optimum concentration (FIG. 3, B to D). […] Ninety-six groups of GelMA samples (four DMSO concentrations, four saccharide concentrations, and six types of saccharides) were studied to identify the optimal CPA configuration. C2C12 cells were encapsulated in the GelMA/CPAs precursor. A volume of 50 μL of the cell-laden precursor was directly cast on a freezing plate in aseptic conditions. […] On day 3, the samples were removed from cryogenic storage and directly crosslinked via UV exposure. The samples were washed in PBS to remove any excess CPAs in preparation for subsequent use. Cell viability was quantified within unthawed cell-encapsulated samples to identify the optimal combination of CPAs. Following the crosslinking and washing steps, the hydrogel samples were cultured for a definite period and then stained using calcein-AM and ethidium homodimer-1 (Thermo Fisher Scientific) per the provider's protocol. An inverted Eclipse-Ti fluorescence microscope (Nikon) was employed to image the live and dead cells in green and red channels, respectively. The ratio of live cells to the total captured cells in random regions of the samples was determined through processing the fluorescent images using ImageJ.

[4] = Ice crystal-formation imaging, fractal dimension (FD) analysis; type: physicochemical; settings: GelMA bioink, 90% of field of view frozen, versus DMSO-free control
Text: One critical factor that affects cell viability during cryopreservation is the formation of ice crystals (Cheng Y, et al., Small 15, 1904290). The spicular ice crystals can damage the cell membrane, resulting in lower cell viability. […] The addition of CPAs noticeably affected the shape of ice crystals. In the control sample (without DMSO), the ice crystals were more spicular and formed faster than the other study groups. Increasing the DMSO concentration led to the formation of fine ice crystals; however, no remarkable improvement in ice-crystallization was observed when the saccharide concentration was increased, as the saccharide merely prevents osmotic damage to the cells. The fractal dimension (FD) theory, in conjunction with an image processing method, was employed to quantitatively compare the smoothness and the growth rate of the ice crystals. The FD value quantifies the geometry's irregularities. In our analysis, ice crystals' boundaries were extracted from the brightfield images and digitized. The FD value for the resulting quasi-circle geometry was then calculated using equation (1) (Chen Y, Math. Probl. Eng 2020, 7528703).
, where P and A stand for the perimeter and the area of the quasi-circle geometry, respectively. FD is an indicator of how the quasi-circle geometry deviates from a circle. […] When 90% of the field of view was frozen, the FD values were recorded and compared. […]

[5] = cited from earlier work
[6] = previously reported (Tada N, et al.); cited from earlier work

Question: Which “optimum concentration of DMSO for maximizing cell viability” value (C2C12 cells [1]; absence of the saccharide) does the source give for `C[S+](C)[O-]` [DMSO, Dimethylsulfoxide] here?
Answer: 10%

Question: And the “average size of the ice crystals” value [2]?
Answer: significantly decreased

Question: And the “optimum concentration of DMSO” value (C2C12 cells [3]; for the selected sugar types, versus DMSO-free group)?
Answer: 10 % (v/v)

Question: And the “FD value of ice crystals” value [4]?
Answer: significantly decreased

Question: With `OC[C@H]1O[C@@H](O[C@H]2[C@H](O)[C@@H](O)C(O)O[C@@H]2CO)[C@H](O)[C@@H](O)[C@H]1O` (stereo partly drawn) [Lactose, D-lactose] as the compound, how does the “most effective saccharide concentration for cell viability increase” value (C2C12 cells [3]) read?
Answer: 4 % (w/v)

Question: What does the source list for `OC[C@H]1O[C@@](CO)(O[C@H]2O[C@H](CO)[C@@H](O)[C@H](O)[C@H]2O)[C@@H](O[C@H]2O[C@H](CO)[C@@H](O)[C@H](O)[C@H]2O)[C@@H]1O` [Melezitose, D-(+)-melezitose hydrate]?
Answer: Solubility at 20° C. [5]: 781 mg/mL; melezitose concentration leading to highest cell viability (C2C12 cells [1]; absence of DMSO): 8%; most effective saccharide concentration for cell viability increase (C2C12 cells [3]): 12 % (w/v)

Question: Which results are given for `OC[C@H]1O[C@H](OC[C@H]2O[C@H](O[C@]3(CO)O[C@H](CO)[C@@H](O)[C@@H]3O)[C@H](O)[C@@H](O)[C@@H]2O)[C@H](O)[C@@H](O)[C@H]1O` [Raffinose, D-(+) raffinose pentahydrate]?
Answer: concentration effective as CPA [6]: 10-18 % (w/v); most effective saccharide concentration for cell viability increase (C2C12 cells [3]): 4 % (w/v)
